The results in this text go back to paper PMC2671563 (PLoS Biology, 2009).

Experiment [1] addresses T1, mS100A9 (Mus musculus, UniProt P31725).
T1 construct: made in house; host or cells: Escherichia coli (or purified from granulocytes)
T1 sequence (P31725 1-113): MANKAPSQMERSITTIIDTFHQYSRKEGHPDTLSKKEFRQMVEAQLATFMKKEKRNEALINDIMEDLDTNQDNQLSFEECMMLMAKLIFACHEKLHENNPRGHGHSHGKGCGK
Briefly: SPR: inhibition of mouse S100A9 binding to immobilised ABR-224649. The following applies: Table S1. The method, then: (§1) The SPR analysis was carried out with the Biacore 3000 system (GE Healthcare). Sensor chips, amine coupling kit, immobilization and running buffers, and regeneration solutions were obtained from GE Healthcare. Working solutions of all reagents used for Biacore analysis were prepared in 0.01 M Hepes, 0.15 M NaCl (pH 7.4) containing 0.005% v/v Surfactant P-20 (HBS-P; GE Healthcare) by buffer exchange on Fast Protein Desalting Micro-Spin Columns from Pierce. ABR-215757 was immobilised onto a CM5 chip through an amino-linker (ABR-224649). […] Activity of ligands after immobilisation was tested by injecting specific antibodies (unpublished data). In some experiments, S100A9 was immobilized either by random amine coupling or with a known orientation (i.e., by sulhydryl group conjugation to the only cysteine in S100A9 at position 3).
(§2) Binding to the various surfaces was performed by injecting the analyte at a flow rate of 30 μl/min in a physiological buffer (HBS-P) containing 1 mM Ca^2+ and 10 μM Zn^2+ as proposed for S100A8/9 by Robinson et al.. A typical analysis cycle consists of: (1) pumping running buffer for 1 min to obtain a stable baseline; (2) injection of sample for an appropriate period of time (association); (3) pumping running buffer for 2.5 min (dissociation); (4) injection of a short pulse (30 s) of 15 μl 10 mM glycine-HCl (pH 2.0) (regeneration); and (5) pumping running buffer for 2 min (stabilisation after regeneration) at a flow rate of 30 μl/min. […] In one experiment, S100A9 was injected into a buffer with a fixed Ca^2+ concentration (1 mM) and Zn^2+ in the range 0–50 μM. In a second experiment, Ca^2+ was varied from 0–2 mM at a fixed Zn^2+ concentration (10 μM). In subsequent analyses, regeneration was carried out under more mild conditions, i.e., by injecting 30 μl of HBS-P containing 3 mM EDTA (HBS-EP; GE Healthcare) for 60 s, to prolong the lifespan of the chip.
(§3) Compounds were also injected over the immobilised surfaces in the absence of S100A9 to exclude, or make possible correction for, any direct binding of compound to the surface.
(§4) Evaluation was carried out using BIAevaluation Software version 3.2 (GE Healthcare). The response at steady-state was obtained by fit of sensorgrams to standard binding models, where appropriate, or calculated as responses at late association or early dissociation phase using the Steady state affinity function in BIAevaluation. Affinity was determined from kinetic analysis (on- and off-rates) or as the apparent affinity after plotting responses versus concentration of analyte in a saturation curve. In the inhibition assay format, the competitor concentration yielding 50% inhibition (IC50) was calculated by fitting data to a one-site competition model in GraphPad Prism.
(In general: SPR reads the build-up and loss of mass on a sensor chip optically.)

Experiment [2] has as its target T2, mS100A8/A9 and mLPS-Trap (Mus musculus, UniProt P31725).
T2 sequence (P31725 2-113 limits assumed): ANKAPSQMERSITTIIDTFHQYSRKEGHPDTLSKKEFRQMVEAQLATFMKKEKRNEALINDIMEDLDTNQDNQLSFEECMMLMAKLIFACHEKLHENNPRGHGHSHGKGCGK
Briefly: SPR: inhibition of mouse S100A8/A9 binding to mLPS-Trap. Particulars: Table S1; read-out: S100A8-9 binding IC50, mS100A8/A9 TLR4. How it is done: as §1, §2, §3, §4

In experiment [3] the target is T3, mS100A8/A9 and mRAGE (Mus musculus, UniProt P31725).
T3 construct: purchased R&D Systems (mRAGE/Fc); S100A8/A9 made in house
T3 sequence (P31725 2-113 limits assumed): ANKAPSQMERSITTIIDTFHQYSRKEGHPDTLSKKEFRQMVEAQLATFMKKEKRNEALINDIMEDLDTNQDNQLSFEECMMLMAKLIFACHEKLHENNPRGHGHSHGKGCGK
T3 sequence (P27005 2-89 partner limits assumed): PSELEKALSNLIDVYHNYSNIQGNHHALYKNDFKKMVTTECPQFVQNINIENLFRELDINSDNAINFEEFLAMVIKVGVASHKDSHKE
Briefly: SPR: inhibition of mouse S100A8/A9 binding to mouse RAGE. Particulars: read-out: S100A8-9 binding IC50, mS100A8/A9 RAGE; Table S1. How it is done:
as §1, §2, §3, §4

Experiment [4] concerns the target T4, human S100A9 binding to human TLR4/MD2 (Homo sapiens, UniProt P06702).
T4 construct: purchased R&D Systems (TLR4/MD-2 complex); S100A9 made in house
T4 sequence (P06702 1-114): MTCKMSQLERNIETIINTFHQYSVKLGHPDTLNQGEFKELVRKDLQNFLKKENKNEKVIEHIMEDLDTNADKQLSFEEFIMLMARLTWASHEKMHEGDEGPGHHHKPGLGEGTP
Briefly: SPR: inhibition of human S100A9 binding to immobilised human TLR4/MD2. The following applies: Table S1; read-out: S100A9 binding IC50, hS100A9 TLR4. The method, then: as §1, §2, §3, §4

The target of experiment [5] is T5, mS100A9 and mRAGE/hFc (Mus musculus, UniProt P31725).
T5 construct: purchased R&D Systems (mRAGE/Fc); S100A9 made in house
T5 sequence (P31725 2-113 limits assumed): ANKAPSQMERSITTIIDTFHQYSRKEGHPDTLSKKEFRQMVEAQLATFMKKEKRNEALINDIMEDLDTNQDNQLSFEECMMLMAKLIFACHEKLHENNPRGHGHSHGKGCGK
Description: SPR: inhibition of mouse S100A9 binding to immobilised mouse RAGE. The following applies: read-out: S100A9 binding IC50, mS100A9 RAGE; Table S1. The method, then:
as §1, §2, §3, §4

Experiment [6] has as its target T6, mS100A9 and mLPS-Trap (Mus musculus, UniProt P31725).
T6 sequence (P31725 2-113 limits assumed): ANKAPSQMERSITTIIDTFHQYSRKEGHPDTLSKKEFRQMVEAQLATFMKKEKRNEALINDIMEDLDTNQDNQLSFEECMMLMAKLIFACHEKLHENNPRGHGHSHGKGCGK
Description: SPR: inhibition of mouse S100A9 binding to immobilised mouse TLR4/MD2 fusion protein (mLPS-Trap). Particulars: Table S1. The method, then:
as §1, §2, §3, §4

The test system of experiment [7] is aEAE development in SLJ/N mice. Briefly: acute experimental autoimmune encephalomyelitis (aEAE) in mice. Format: in vivo, mouse. An excerpt: A training set of five quinoline derivatives with structural diversification performed at position 5 of the quinoline ring system was used for the SAR. PCA was used to uncover any relationship between the binding activities of the quinoline derivatives at the S100 proteins and the inhibitory effect of these derivatives in the aEAE model. PLS was then used to model the relationship between the physiochemical descriptors used to characterize the compounds and their biological responses. […] All variables were mean centred and scaled to unit variance.

The target in experiment [8] is T7, human S100A9 binding to human RAGE (Homo sapiens, UniProt P06702).
T7 construct: purchased R&D Systems (RAGE/Fc); S100A9 made in house
T7 sequence (P06702 1-114): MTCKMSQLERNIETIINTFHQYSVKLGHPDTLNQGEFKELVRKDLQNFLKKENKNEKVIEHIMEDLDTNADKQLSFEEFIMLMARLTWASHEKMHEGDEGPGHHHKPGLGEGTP
Description: SPR: inhibition of human S100A9 binding to immobilised human RAGE. The following applies: read-out: S100A9 binding IC50, hS100A9 RAGE; Table S1. The method, then:
as §1, §2, §3, §4

Experiment [9] deals with mouse S100A9 (mouse) (UniProt P31725). Briefly: SPR; competition: 100 nM mouse S100A9 injected over amine-coupled mLPS-Trap with soluble mLPS-Trap (100, 200, 400 nM) as competitor.
Experiment [10] deals with T8, human S100A9 (Homo sapiens, UniProt P06702).
T8 construct: made in house; host or cells: Escherichia coli (or purified from granulocytes)
T8 sequence (P06702 1-114): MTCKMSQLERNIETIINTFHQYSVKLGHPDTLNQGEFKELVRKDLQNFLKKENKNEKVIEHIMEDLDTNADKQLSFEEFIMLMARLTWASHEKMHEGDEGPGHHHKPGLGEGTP
Briefly: SPR: human S100A9 binding to immobilised ABR-224649 (Q compound), direct binding and displacement. How it is done:
as §1, §2, §3, §4

Regarding `CCN(C(=O)c1c(O)c2c(SC)cccc2n(C)c1=O)c1ccccc1` [ABR-215628], the IC50 is 906 µM in experiment [1]; 257 µM in experiment [2]; 174 µM in experiment [3]; 154 µM in experiment [4]; 447 µM in experiment [5]; 780 µM in experiment [6]. The IC50 in experiment [8] was determined as 135 µM. The “aEAE Inhibition ED50” value in experiment [7] is on record as 0.20 mg/kg.

In experiment [9], “mouse TLR4/MD2 fusion protein (mLPS-Trap)” showed a percent inhibition of mS100A9 binding to immobilised mLPS-Trap at 100 nM competitor of 22%, a percent inhibition of mS100A9 binding to immobilised mLPS-Trap at 200 nM competitor of 51% and a percent inhibition of mS100A9 binding to immobilised mLPS-Trap at 400 nM competitor of 70%.

For the compound `CCN(C(=O)c1c(O)c2c(C)cccc2n(C)c1=O)c1ccccc1` [ABR-215111], the IC50 in experiment [1] came to 1340 µM; in experiment [2], 293 µM; in [3] it was 310 µM; in experiment [4] it was 217 µM; in [5], 783 µM; in experiment [6], 1240 µM. In experiment [8], the IC50 was 168 µM. For the same compound, in experiment [7], the “aEAE Inhibition ED50” value is recorded as 0.55 mg/kg.

For the compound `CCN(C(=O)c1c(O)c2c(Br)cccc2n(C)c1=O)c1ccccc1` [ABR-215727], the IC50 was found to be 522 µM in experiment [1]; 200 µM in experiment [2]; 164 µM in experiment [3]; 87.9 µM in [4]; 191 µM in [5]; 440 µM in experiment [6]. Besides, the IC50 in experiment [8] was 78.7 µM. Also, in experiment [7], the “aEAE Inhibition ED50” value came out at 0.16 mg/kg.

As for `CCc1cccc2c1c(O)c(C(=O)N(CCOCCN)c1ccccc1)c(=O)n2C` [ABR-224649], the “ability to displace S100A9 binding to immobilised ABR-224649” value in experiment [10] (coinjected with S100A9, unpublished data) is “very similar ability to displace binding as ABR-215757”. Further, the Kd in [10] (steady-state responses vs 25–200 nM S100A9, 1 mM Ca2+, 10 μM Zn2+, read-out: half-maximal binding of S100A9 to immobilised ABR-224649) is 0.085 µM.

`CCN(C(=O)c1c(O)c2c(C(F)(F)F)cccc2n(C)c1=O)c1ccccc1` [ABR-215629]: the IC50 in experiment [1] was 916 µM; in experiment [2], 301 µM; in [3] it was 351 µM; in [4] it was 79 µM; in experiment [5], 230 µM; in [6] it was 741 µM. The “aEAE Inhibition ED50” value in experiment [7] is 0.13 mg/kg.
